Results: PubChem BioAssay AID1963844 (Molecular Pharmacology Branch, DTP, NCI, 2024)

Tested on: 422866-222-R5-J1-PDC complex spheroid viability
Assay: Anticancer human tumor 422866-222-R5-J1-PDC patient-derived pancreatic adenocarcinoma cell line growth inhibition [POLQ]
Conditions: for IC50: curve of first compound; for viability, T/C: stronger effect = lower value
Method: Multicellular complex tumor spheroid response to Polymerase (POL) inhibitors (novobiocin, ART-558, RP6685) in combination with a variety of drugs and investigational agents in selected tumor cell lines
The POL inhibitors (novobiocin, ART-558, and RP6685) were evaluated both individually and in combination with standard of care and investigational anticancer small molecules within a complex spheroid model of solid tumors. . Complex spheroids include a stromal component modeled by human endothelial cells (HUVEC) and fibroblasts modeled by human mesenchymal stem cells (MSCs). The concentration ranges selected for each drug and investigational agent were based upon clinically achievable concentrations if the clinical Cmax of the agent was known.
Compounds. The drugs and investigational agents: novobiocin (NSC847541), ART-558 (NSC835418), RP-6685 (NSC848927), peposertib (NSC802822), ceralasertib (NSC780249), elimusertib (NSC800525), camonsertib (NSC841442), AZD-1390 (NSC803789), olaparib (NSC753686), talazoparib (NSC767125), rucaparib (NSC756644), sotorasib (NSC818433), MRTX-1133 (NSC836407), SN-38 (NSC673596), topotecan (NSC609699), epotoside (NSC141540), doxorubicin (NSC123127), gemcitabine (NSC613327), 5-fluorouracil (NSC19893), paclitaxel (NSC125973), vemurafenib (NSC761431), MSA-2 (NSC828583), SN-011 (NSC837082), adavosertib (NSC754352), prexasertib (NSC758257), carboplatin (NSC241240) and oxaliplatin (NSC266046), were obtained from the National Cancer Institute (NCI) Developmental Therapeutics Program Chemical Repository (21). The FDA-approved anticancer drug set is available from the Developmental Therapeutics Program at https://dtp.cancer.gov/organization/dscb/obtaining/. […] The stock solutions were prepared in dimethyl sulfoxide (DMSO, Sigma-Aldrich, St. Louis, MO, cat. D2650), except for the platinum compounds which were prepared in saline (Quality Biological, Gaithersburg, MD, cat. 114-055-101), at 800-fold the tested concentration and stored at -70 degrees C prior to their use. All drugs and investigational agents were tested over a range starting from a high concentration at or near the clinical Cmax and decreasing in half-log increments. If the clinical Cmax for an agent had not been determined, the highest concentration tested was 10 microM, except for SN-38, which was tested at a high concentration of 1 microM.
Cell Culture. All cells were maintained in an incubator at 37 degrees C and 5% CO2 with 95% humidity. The PDC lines were cultured according to standard operating procedures established by the NCI PDMR (https://pdmr.cancer.gov). Table 3 of the manuscript, lists the cell lines along with the number of the three cell types plated to form the mct-spheroids and media for tumor cell growth. After thawing, all PDC lines, except 997537-175-T-J1-PDC and 415267-285-R-J2-PDC, were cultured in Matrigel-coated flasks prepared with a working solution of 1X Ham's F-12 nutrient mix, without supplementation (Thermo Fisher Scientific, cat. 11765054), 100 U/mL penicillin-streptomycin (Thermo Fisher Scientific, cat. 15140122), and 2.5% Matrigel (Corning Inc., Corning, NY, cat. 354248) for the first three passages. The two PDC lines 997537-175-T-J1-PDC and 415267-285-R-J2-PDC were cultured on uncoated flasks. The 857933-349-R-J2-PDC line was cultured in 6C/Colon 1B media containing advanced DMEM/F-12 (Thermo Fisher Scientific, cat. 12634028), 10 mM HEPES (Thermo Fisher Scientific, cat. 15630080), 1X GlutaMAX supplement (Thermo Fisher Scientific, cat. 35050061), 0.1 mg/mL primocin (InvivoGen, San Diego, CA, cat. ant-pm-2), 10% defined fetal bovine serum, heat inactivated (HyClone Laboratories Inc., Logan, UT, cat. SH30070.03HI), 50% L-WRN conditioned media (ATCC, cat. CRL-3276), 1.25 mM N-Acetyl-L-cysteine (Sigma-Aldrich, cat. A9165), 10 mM nicotinamide (Sigma-Aldrich, cat. N0636), 1X B-27 supplement (Thermo Fisher Scientific, cat. 17504044), 1X N-2 supplement (Thermo Fisher Scientific, cat. […]

[1] = second compound 0.0316 µM, first compound 0.0316 µM
[2] = second compound 0.0316 µM, first compound 0.1 µM
[3] = second compound 0.0316 µM, first compound 0.316 µM
[4] = second compound 0.0316 µM, first compound 1 µM
[5] = second compound 0.0316 µM, first compound 3.16 µM
[6] = second compound 0.0316 µM, first compound 10 µM
[7] = second compound 0.1 µM, first compound 0.0316 µM
[8] = second compound 0.1 µM, first compound 0.1 µM
[9] = second compound 0.1 µM, first compound 0.316 µM
[10] = second compound 0.1 µM, first compound 1 µM
[11] = second compound 0.1 µM, first compound 3.16 µM
[12] = second compound 0.1 µM, first compound 10 µM
[13] = second compound 0.316 µM, first compound 0.0316 µM
[14] = second compound 0.316 µM, first compound 0.1 µM
[15] = second compound 0.316 µM, first compound 0.316 µM
[16] = second compound 0.316 µM, first compound 1 µM
[17] = second compound 0.316 µM, first compound 3.16 µM
[18] = second compound 0.316 µM, first compound 10 µM
[19] = second compound 1 µM, first compound 0.0316 µM
[20] = second compound 1 µM, first compound 0.1 µM
[21] = second compound 1 µM, first compound 0.316 µM
[22] = second compound 1 µM, first compound 1 µM
[23] = second compound 1 µM, first compound 3.16 µM
[24] = second compound 1 µM, first compound 10 µM
[25] = second compound 3.16 µM, first compound 0.0316 µM
[26] = second compound 3.16 µM, first compound 0.1 µM
[27] = second compound 3.16 µM, first compound 0.316 µM
[28] = second compound 3.16 µM, first compound 1 µM
[29] = second compound 3.16 µM, first compound 3.16 µM
[30] = second compound 3.16 µM, first compound 10 µM
[31] = second compound 10 µM, first compound 0.0316 µM
[32] = second compound 10 µM, first compound 0.1 µM
[33] = second compound 10 µM, first compound 0.316 µM
[34] = second compound 10 µM, first compound 1 µM
[35] = second compound 10 µM, first compound 3.16 µM
[36] = second compound 10 µM, first compound 10 µM
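Note: spheroids exposed to compounds for one week before readout.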
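Throughout, for viability, T/C: percent of DMSO vehicle wells luminescence so 100% = untreated viability.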

## CC1COCCN1c1cc(C2(O)CC3CCC(C2)O3)c2cnn(-c3ccn[nH]3)c2n1 (centres undefined) + COC1C(OC(N)=O)C(O)C(Oc2ccc3c(O)c(NC(=O)c4ccc(O)c(CC=C(C)C)c4)c(=O)oc3c2C)OC1(C)C
Second compound 0.0316 µM
  IC50: > 10 µM
Second compound 0.1 µM
  IC50: > 10 µM
Second compound 0.316 µM
  IC50: < 0.0316 µM
Second compound 1 µM
  IC50: > 10 µM
Second compound 3.16 µM
  IC50: > 10 µM
Second compound 10 µM
  IC50: > 10 µM
[1]
  viability, T/C: 71.4%
[2]
  viability, T/C: 47.9%
[3]
  viability, T/C: 45.8%
[4]
  viability, T/C: 83.7%
[5]
  viability, T/C: 70.7%
[6]
  viability, T/C: 79.8%
[7]
  viability, T/C: 73.5%
[8]
  viability, T/C: 47%
[9]
  viability, T/C: 41.9%
[10]
  viability, T/C: 65.3%
[11]
  viability, T/C: 76.8%
[12]
  viability, T/C: 66.4%
[13]
  viability, T/C: 72.9%
[14]
  viability, T/C: 36.2%
[15]
  viability, T/C: 37%
[16]
  viability, T/C: 77.8%
[17]
  viability, T/C: 71.5%
[18]
  viability, T/C: 71.7%
[19]
  viability, T/C: 75.6%
[20]
  viability, T/C: 45.3%
[21]
  viability, T/C: 47.8%
[22]
  viability, T/C: 77.7%
[23]
  viability, T/C: 63.4%
[24]
  viability, T/C: 77.7%
[25]
  viability, T/C: 84.3%
[26]
  viability, T/C: 44.4%
[27]
  viability, T/C: 48%
[28]
  viability, T/C: 75.2%
[29]
  viability, T/C: 67.5%
[30]
  viability, T/C: 71.1%
[31]
  viability, T/C: 79.1%
[32]
  viability, T/C: 52.7%
[33]
  viability, T/C: 40.7%
[34]
  viability, T/C: 82.9%
[35]
  viability, T/C: 75.2%
[36]
  viability, T/C: 65.6%

## CC(C)n1c(=O)n(C)c2cnc3cc(F)c(-c4ccc(OCCCN5CCCCC5)nc4)cc3c21 + Cc1cccc(N(C)C(=O)C2C(O)CCN2c2nc(C)cc(C(F)(F)F)c2C#N)c1
Second compound 0.0316 µM
  IC50: > 10 µM
Second compound 0.1 µM
  IC50: > 10 µM
Second compound 0.316 µM
  IC50: > 10 µM
Second compound 1 µM
  IC50: > 10 µM
Second compound 3.16 µM
  IC50: > 10 µM
Second compound 10 µM
  IC50: > 10 µM
[1]
  viability, T/C: 105%
[2]
  viability, T/C: 101%
[3]
  viability, T/C: 105%
[4]
  viability, T/C: 124%
[5]
  viability, T/C: 106%
[6]
  viability, T/C: 64.9%
[7]
  viability, T/C: 91.6%
[8]
  viability, T/C: 108%
[9]
  viability, T/C: 106%
[10]
  viability, T/C: 115%
[11]
  viability, T/C: 96.3%
[12]
  viability, T/C: 60.4%
[13]
  viability, T/C: 117%
[14]
  viability, T/C: 101%
[15]
  viability, T/C: 104%
[16]
  viability, T/C: 114%
[17]
  viability, T/C: 79.5%
[18]
  viability, T/C: 67%
[19]
  viability, T/C: 100%
[20]
  viability, T/C: 112%
[21]
  viability, T/C: 96.2%
[22]
  viability, T/C: 111%
[23]
  viability, T/C: 98%
[24]
  viability, T/C: 59.5%
[25]
  viability, T/C: 115%
[26]
  viability, T/C: 115%
[27]
  viability, T/C: 96.9%
[28]
  viability, T/C: 118%
[29]
  viability, T/C: 79.9%
[30]
  viability, T/C: 66.9%
[31]
  viability, T/C: 115%
[32]
  viability, T/C: 90.5%
[33]
  viability, T/C: 94.5%
[34]
  viability, T/C: 90.7%
[35]
  viability, T/C: 80.5%
[36]
  viability, T/C: 60.3%
